How the values were obtained:
[1] = system: hind limb skin blood flow; test: Peripheral blood flow increasing action in STZ-induced diabetic rats; type: in vivo, rat; settings: intravenous, 1 μg
Outline: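 Male SD rats (200-300 g) made diabetic with STZ 65 mg/kg i.v.; one month later, under pentobarbital anesthesia, compound given i.v. via carotid catheter. Hind limb skin blood flow measured by laser flowmeter, expressed as percent increase over pre-dose flow.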

[2] = system: CEM cells (human T cell type established cell); test: Inhibition of VLA integrin activation (phorbol ester-induced adhesion of CEM cells to fibronectin); type: cell-based; settings: CCRF-CEM, concentration 100 μM, PMA-induced adhesion, read-out: Adhesion induction inhibition (%)
Experimental: Inhibition of VLA (Very Late Antigen) Integrin Activation
As the index of the activation by VLA integrin, phorbol ester-induced adhesion of CEM cells (human T cell type established cell) to fibronectin, which is a ligand of VIA integrin, was measured. The inhibitory action on the induced adhesion by the test compound was determined by the following method.
CEM cells were washed with RPMI1640 medium containing 0.5% bovine serum albumin (BSA), 10 mM HEPES, 2 mM L-glutamin, 1 mM sodium pyruvate, 60 μg/ml kanamycin sulfate and 1.5 mg/ml sodium hydrogencarbonate (hereinafter this medium is referred to as culture solution) and suspended in this medium for use in the following experiment. To each well of a 96 well plate coated with human fibronectin were added CEM cells (5×10^4) and the test compound dissolved in the culture solution (final concentration 1-100 μM) to the amount of 100 μl, and the plate was stood at 37° C. for 1 hour. Then, PMA (phorbol 12-myristate 13-acetate, TPA; final concentration 10 ng/ml) and the test compound were added to the amount of 200 μl, and the plate was stood at 37° C. for 30 minutes. Each well was washed twice with the culture solution (200 μL) at 37° C., and the LDH (lactate dehydrogenase) activity of the cells adhered to the plate was determined, whereby the amount of the adhered cell was measured. Based on the results obtained by the above-mentioned method, the inhibitory action of the test compound on the induced adhesion was calculated by the following formula The results are shown in Table 6. Inhibition (%) of adhesion induction=(a−b)/(a−c)×100 • a=number of cells adhered with the addition of PMA • b=number of cells adhered with the addition of test compound and PMA • c=number of cells adhered without stimulation

[3] = molecular target: T1, Human Platelet Rho Kinase (p160ROCK) (Homo sapiens, UniProt Q13464); test: Rho kinase inhibitory action (inhibition of human platelet Rho kinase (p160ROCK)); type: biochemical; settings: histone substrate, 1 μM ATP
T1 construct: Human platelet p160ROCK was isolated by the method of Ishizaki et al; from tissue; host or cells: human platelets
T1 sequence (Q13464 whole entry): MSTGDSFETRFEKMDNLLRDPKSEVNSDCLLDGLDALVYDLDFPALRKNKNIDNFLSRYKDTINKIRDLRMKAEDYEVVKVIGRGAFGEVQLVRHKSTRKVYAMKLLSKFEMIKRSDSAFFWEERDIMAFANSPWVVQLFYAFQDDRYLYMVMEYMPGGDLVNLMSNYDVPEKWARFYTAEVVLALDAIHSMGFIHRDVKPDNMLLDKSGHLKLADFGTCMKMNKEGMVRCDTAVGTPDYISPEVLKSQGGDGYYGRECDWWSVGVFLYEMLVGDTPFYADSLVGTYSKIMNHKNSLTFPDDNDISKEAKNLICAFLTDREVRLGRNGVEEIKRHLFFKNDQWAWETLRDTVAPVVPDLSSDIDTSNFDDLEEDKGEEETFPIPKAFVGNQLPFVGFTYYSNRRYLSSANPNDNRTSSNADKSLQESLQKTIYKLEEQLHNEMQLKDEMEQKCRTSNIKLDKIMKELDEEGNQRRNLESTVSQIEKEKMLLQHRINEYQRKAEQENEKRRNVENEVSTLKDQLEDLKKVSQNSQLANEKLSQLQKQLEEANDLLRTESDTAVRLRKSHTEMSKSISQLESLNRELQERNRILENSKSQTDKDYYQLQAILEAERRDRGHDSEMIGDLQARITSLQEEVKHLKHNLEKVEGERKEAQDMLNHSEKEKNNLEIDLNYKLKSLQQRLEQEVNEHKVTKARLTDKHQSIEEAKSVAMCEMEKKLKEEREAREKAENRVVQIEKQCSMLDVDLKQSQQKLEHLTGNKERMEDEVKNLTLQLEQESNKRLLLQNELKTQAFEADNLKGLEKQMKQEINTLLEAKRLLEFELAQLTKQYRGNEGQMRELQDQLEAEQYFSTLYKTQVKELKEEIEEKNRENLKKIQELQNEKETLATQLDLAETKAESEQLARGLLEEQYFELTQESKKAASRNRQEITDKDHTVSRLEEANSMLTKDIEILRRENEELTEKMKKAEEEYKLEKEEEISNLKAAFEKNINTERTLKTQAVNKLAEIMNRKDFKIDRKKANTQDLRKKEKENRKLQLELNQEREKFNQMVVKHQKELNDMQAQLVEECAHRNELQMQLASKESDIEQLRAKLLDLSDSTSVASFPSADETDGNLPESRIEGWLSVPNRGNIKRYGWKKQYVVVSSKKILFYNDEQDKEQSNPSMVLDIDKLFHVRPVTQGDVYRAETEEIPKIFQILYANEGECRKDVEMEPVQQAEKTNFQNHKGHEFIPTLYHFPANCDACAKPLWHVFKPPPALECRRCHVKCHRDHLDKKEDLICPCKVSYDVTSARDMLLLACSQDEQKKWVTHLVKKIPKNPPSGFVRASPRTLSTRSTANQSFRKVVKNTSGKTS
Experimental: Rho Kinase Inhibitory Action (Inhibition of Human Platelet Rho Kinase (p160ROCK))
(§1) Kinase assay included the following steps. That is, a reaction mixture (total amount 30 μl) containing 50 mM Hepes-NaOH (pH=7.4), 10 mM MgCl2, 5 mM MnCl2, 2 mM dithiothreitol, 0.02% Brij35, 1 μM [γ-^32P]ATP, 330 μg/ml histone, p160ROCK (2 μl) isolated by the method of Ishizaki et al. and the test compound was incubated at 30° C. for 20 minutes. The solution was mixed with a 1/3 amount of 4× Laemmli sample buffer, boiled for 5 minutes and applied to SDS-PAGE. The gel was stained with Coomassie Brilliant Blue and dried. The band of histone was cut out and assayed for radioactivity.

p160ROCK = molecular target: T2, p160ROCK (Homo sapiens, UniProt Q13464); test: Inhibition of p160ROCK (myc-tagged, expressed in COS cells); type: biochemical; settings: enzyme expressed in COS cells
T2 construct: made in house; host or cells: COS cells (transient transfection, immunoprecipitated with 9E10 anti-myc antibody on protein G-Sepharose)
T2 sequence (Q13464 whole entry): as above
Experimental: as §1
(§2) Rho Kinase Inhibitory Action (Inhibition of p160ROCK and ROCKII)
(§3) COS cells were seeded in a 3.5 cm dish and incubated overnight. […] After incubation for 20 hours, the cells were washed once with ice-cooled PBS, and the cells were lysed on ice for 20 minutes using a lysis buffer (20 mM Tris-HCl (pH=7.5), 1 mM EDTA, 1 mM EGTA, 5 mM MgCl2, 25 mM NaF, 10 mM β glycerophosphate, 5 mM sodium pyrophorphate, 0.2 mM phenylmethylsulfonyl fluoride, 2 mM dithiothreitol, 0.2 mM sodium vanadate, 0.05% Triton X-100, 0.1 μM calyculin A). The lysate was centrifuged at 10,000×g for 10 minutes and the supernatant was recovered. […] Then, protein G-Sepharose was added and the mixture was shaken for 2 more hours. […]

ROCKII = molecular target: T3, ROCKII (Mus musculus, UniProt P70336); test: Inhibition of ROCKII (myc-tagged, expressed in COS cells); type: biochemical; settings: enzyme expressed in COS cells; read-out: IC50 (μM) ROCK-II
T3 construct: made in house; host or cells: COS cells (transient transfection, immunoprecipitated with 9E10 anti-myc antibody on protein G-Sepharose)
T3 sequence (P70336 whole entry): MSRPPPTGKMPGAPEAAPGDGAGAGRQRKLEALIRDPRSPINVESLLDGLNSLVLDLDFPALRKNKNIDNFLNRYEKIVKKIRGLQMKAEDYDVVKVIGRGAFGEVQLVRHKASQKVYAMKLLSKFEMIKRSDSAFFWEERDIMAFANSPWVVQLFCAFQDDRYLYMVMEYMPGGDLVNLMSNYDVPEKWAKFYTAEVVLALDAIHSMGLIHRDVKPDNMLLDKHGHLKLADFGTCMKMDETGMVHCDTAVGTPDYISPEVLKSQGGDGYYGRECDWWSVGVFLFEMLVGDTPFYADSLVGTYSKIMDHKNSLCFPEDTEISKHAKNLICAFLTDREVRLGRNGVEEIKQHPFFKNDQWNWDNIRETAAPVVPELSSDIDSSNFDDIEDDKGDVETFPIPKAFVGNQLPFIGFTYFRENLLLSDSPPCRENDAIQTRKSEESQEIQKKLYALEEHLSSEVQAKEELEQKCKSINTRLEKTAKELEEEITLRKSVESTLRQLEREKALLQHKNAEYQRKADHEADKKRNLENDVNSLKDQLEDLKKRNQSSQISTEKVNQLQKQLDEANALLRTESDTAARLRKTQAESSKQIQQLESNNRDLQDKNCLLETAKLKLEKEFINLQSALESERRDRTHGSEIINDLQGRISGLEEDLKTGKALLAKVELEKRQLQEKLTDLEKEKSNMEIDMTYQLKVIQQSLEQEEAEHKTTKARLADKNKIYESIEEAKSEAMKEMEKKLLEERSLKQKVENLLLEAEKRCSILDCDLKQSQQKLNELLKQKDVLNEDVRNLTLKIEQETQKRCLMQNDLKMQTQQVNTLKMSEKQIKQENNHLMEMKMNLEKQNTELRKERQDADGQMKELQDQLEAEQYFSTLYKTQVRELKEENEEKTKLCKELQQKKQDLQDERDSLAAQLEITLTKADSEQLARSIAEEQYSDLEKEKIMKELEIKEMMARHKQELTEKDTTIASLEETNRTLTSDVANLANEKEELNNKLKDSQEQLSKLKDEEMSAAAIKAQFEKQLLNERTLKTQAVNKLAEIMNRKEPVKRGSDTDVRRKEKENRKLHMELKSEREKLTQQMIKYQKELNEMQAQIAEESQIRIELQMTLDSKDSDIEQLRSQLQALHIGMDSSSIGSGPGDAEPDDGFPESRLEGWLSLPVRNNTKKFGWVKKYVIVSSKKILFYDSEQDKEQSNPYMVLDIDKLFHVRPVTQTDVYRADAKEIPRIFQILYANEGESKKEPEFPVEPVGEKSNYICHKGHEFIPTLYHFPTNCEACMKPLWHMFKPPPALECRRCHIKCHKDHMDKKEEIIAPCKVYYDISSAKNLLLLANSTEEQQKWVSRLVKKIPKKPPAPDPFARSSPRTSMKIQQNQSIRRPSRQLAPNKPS
Experimental: as §1, §2, §3

[4] = system: trachea specimen contracted with acetylcholine; test: Effect on contraction by acetylcholine of trachea specimen removed from guinea pig; settings: Cavia porcellus, acetylcholine 10^−6 M contraction, 50% relaxation vs papaverine 10^−4 M maximum, read-out: Trachea relaxing action
Experimental: Male Hartley guinea pigs (body weight 260-390 g) were anesthetized by the peritoneal administration of pentobarbital sodium (100 mg/kg) and exsanguinated, whereafter trachea was removed. The anterior cartilage of the trachea was opened and the band was cut in a 3 mm width strip to give a specimen. The specimen was hung in a Magnus bath (40 ml) filled with Krebs-Henseleit solution (NaCl 117 mM; KCl 4.7 mM; CaCl2 2.5 mM; MgSO4 1.2 mM; NaHCO3 24.8 mM; KH2PO4 1.2 mM; glucose 11.0 mM) at a load of 1 g. The Magnus bath was constantly bubbled with a mixed gas (95% O2+5% CO2 gas). The tension of the strip was measured with an isomeric transducer (TB-611T, Nippon Koden) and depicted on a recorder (Ti-102, Tokai Irika).

Human SK-Mel-28 melanoma = test: Inhibition of cell growth of SK-Mel-28 melanoma; type: cell-based; settings: 72 hours, MTT
Experimental: Inhibition of Cell Growth of SK-Mel-28 Melanoma
Human SK-Mel-28 melanoma (10^4 cells) and the test compound were suspended in RPMI1640 medium containing 100 μl of 10% FBS and incubated in a 96 well plate at 37° C. under 5% CO2 gas for 72 hours. After the incubation, 10 μl of MTT (5 mg/ml) was added to each well and the cells were incubated at 37° C. under 5% CO2 gas for 4 hours. Then, 10% sodium dodecyl sulfate and 0.01 N hydrochloric acid solution were each added by 10 μl to respective wells. After the plate was stood overnight, absorbance at 570 nm was measured using a microplate reader and the inhibition percentage (% cytotoxicity) was calculated by the following formula.
The cytotoxicity against human cultured tumor cells was confirmed by pigment method (Carmichael et al., Cancer Res., 47, 936-942, 1987: Mosman, J. Immunol. Methods, 65, 55-63, 1983) using 3-(4,5-dimethylthiazol-2-yl)-2,5-diphenyltetrazolium bromide (MTT).
The test compound was dissolved in dimethyl sulfoxide and diluted with RPMI 1640 medium before use. The final dimethyl sulfoxide concentration was adjusted to not more than 0.25%.

ddY mice = test: Acute toxicity in ddY mice; type: in vivo; settings: intraperitoneal administration at 30 mg/kg, monitored for 5 days
Excerpt: The compound 109.2HCl and compound 143.2HCl.H2O were respectively administered intraperitoneally to ddY mice and the mice were monitored for 5 days.

CC(N)[C@H]1CC[C@H](C(=O)Nc2ccncc2)CC1 (single isomer, unassigned; (+)) [Compound 80.2HCl.H2O, (+)-trans-4-(1-aminoethyl)-1-(4-pyridylcarbamoyl)cyclohexane]
Increase in skin blood flow ± standard error (%) [1]: 135.0 ± 13.4%
inhibition at 100 µM [2]: 70%

CC(N)[C@H]1CC[C@H](C(=O)Nc2ccnc3[nH]ccc23)CC1 (single isomer, unassigned; (+)) [Compound 109.2HCl, (+)-trans-N-(1H-pyrrolo[2,3-b]pyridin-4-yl)-4-(1-aminoethyl)cyclohexanecarboxamide]
IC50 [3]: 0.11 µM
IC50 (p160ROCK): 0.095 µM
IC50 (ROCKII): 0.048 µM
IC50 [4]: 0.043 µM
inhibition at 100 µM [2]: 67%
IC50 (Human SK-Mel-28 melanoma): 58 µM
Acute toxicity (death) (ddY mice): did not cause death

From US6906061B2, “Pharmaceutical agent containing Rho kinase inhibitor” (Mitsubishi Pharma Corporation, priority 1996, dated 2005)
